Data taken from ChEMBL document CHEMBL5584203, “Discovery of sinomenine/8-Bis(benzylthio)octanoic acid hybrids as potential anti-leukemia drug candidate via mitochondrial pathway” (Bioorg Med Chem Lett, 2024).

Columns and labels:
[1] = Cytotoxicity against human PBMCs by CCK8 assay; type: toxicity, cell-based, PBMC
HepG2 = assay: Antiproliferative activity against human HepG2 cells by CCK8 assay; type: functional, cell-based
A549 = assay: Antiproliferative activity against human A549 cells by CCK8 assay; type: functional, cell-based
MDA-MB-231 = assay: Antiproliferative activity against human MDA-MB-231 cells by CCK8 assay; type: functional, cell-based
PANC-1 = assay: Antiproliferative activity against human PANC-1 cells by CCK8 assay; type: functional, cell-based
MCF7 = assay: Antiproliferative activity against human MCF7 cells by CCK8 assay; type: functional, cell-based
K562 [2] = assay: Antiproliferative activity against human K562 cells by CCK8 assay; type: functional, cell-based
K562 [3] = assay: Induction of cell cycle arrest in human K562 cells assessed as S phase cells at 1.23 uM by propidium iodide staining based flow cytometry analysis (reference value: 44.03%); type: functional
Cell membrane [4] = assay: Induction of mitochondrial membrane potential loss in human K562 cells assessed as increase in apoptotic cells at 2.45 uM by JC-1 staining based flow cytometry analysis (reference value: 5.70); type: cell membranes
Cell membrane [5] = assay: Induction of mitochondrial membrane potential loss in human K562 cells assessed as increase in apoptotic cells at 4.90 uM by JC-1 staining based flow cytometry analysis (reference value: 5.70); type: cell membranes; conditions: dose 4.9 µM
K562 [6] = assay: Induction of apoptosis in human K562 cells assessed as early apoptotic cells at 2.45 uM by Annexin V-FITC and PI staining based flow cytometry analysis (reference value: 3.31%); type: functional
K562 [7] = assay: Induction of cell cycle arrest in human K562 cells assessed as G1 phase cells at 4.90 uM by propidium iodide staining based flow cytometry analysis (reference value: 43.16%); type: functional; conditions: dose 4.9 µM
K562 [8] = assay: Induction of cell cycle arrest in human K562 cells assessed as G2 phase cells at 1.23 uM by propidium iodide staining based flow cytometry analysis (reference value: 12.80%); type: functional
K562 [9] = assay: Induction of apoptosis in human K562 cells assessed as early apoptotic cells at 4.90 uM by Annexin V-FITC and PI staining based flow cytometry analysis (reference value: 3.31%); type: functional; conditions: dose 4.9 µM
K562 [10] = assay: Induction of apoptosis in human K562 cells assessed as early apoptotic cells at 1.23 uM by Annexin V-FITC and PI staining based flow cytometry analysis (reference value: 3.31%); type: functional
K562 [11] = assay: Induction of cell cycle arrest in human K562 cells assessed as G1 phase cells at 1.23 uM by propidium iodide staining based flow cytometry analysis (reference value: 43.16%); type: functional
K562 [12] = assay: Induction of apoptosis in human K562 cells assessed as cell membrane rupture incubated for 48 hrs by Hoechst 33,258 staining based fluorescence microscopy analysis; type: functional; conditions: dose 1.23-4.9 µM
K562 [13] = assay: Induction of cell cycle arrest in human K562 cells assessed as S phase cells at 2.45 uM by propidium iodide staining based flow cytometry analysis (reference value: 44.03%); type: functional
K562 [14] = assay: Induction of cell cycle arrest in human K562 cells assessed as G1 phase cells at 2.45 uM by propidium iodide staining based flow cytometry analysis (reference value: 43.16%); type: functional
K562 [15] = assay: Induction of cell cycle arrest in human K562 cells assessed as G2 phase cells at 4.90 uM by propidium iodide staining based flow cytometry analysis (reference value: 12.80%); type: functional; conditions: dose 4.9 µM
Cell membrane [16] = assay: Induction of mitochondrial membrane potential loss in human K562 cells assessed as increase in apoptotic cells at 1.23 uM by JC-1 staining based flow cytometry analysis (reference value: 5.70); type: cell membranes
K562 [17] = assay: Induction of apoptosis in human K562 cells assessed as late apoptotic cells at 2.45 uM by Annexin V-FITC and PI staining based flow cytometry analysis (reference value: 3.04%); type: functional
K562 [18] = assay: Induction of apoptosis in human K562 cells assessed as chromatin condensation incubated for 48 hrs by Hoechst 33,258 staining based fluorescence microscopy analysis; type: functional, cell-based; conditions: dose 1.23-4.9 µM
K562 [19] = assay: Induction of cell cycle arrest in human K562 cells assessed as S phase cells at 4.90 uM by propidium iodide staining based flow cytometry analysis (reference value: 44.03%); type: functional; conditions: dose 4.9 µM
K562 [20] = assay: Induction of apoptosis in human K562 cells assessed as late apoptotic cells at 4.90 uM by Annexin V-FITC and PI staining based flow cytometry analysis (reference value: 3.04%); type: functional; conditions: dose 4.9 µM
K562 [21] = assay: Induction of cell cycle arrest in human K562 cells assessed as G2 phase cells at 2.45 uM by propidium iodide staining based flow cytometry analysis (reference value: 12.80%); type: functional
K562 [22] = assay: Induction of apoptosis in human K562 cells assessed as late apoptotic cells at 1.23 uM by Annexin V-FITC and PI staining based flow cytometry analysis (reference value: 3.04%); type: functional

Compound	IC50 [1] [µM]	IC50 (HepG2) [µM]	IC50 (A549) [µM]	IC50 (MDA-MB-231) [µM]	IC50 (PANC-1) [µM]	IC50 (MCF7) [µM]	IC50 (K562 [2]) [µM]	also measured
COC1=CC2[C@@H]3Cc4c(Cl)cc(OC)c(OCCCCCOC(=O)CCCCC(CCSCc5ccccc5)SCc5ccccc5)c4[C@]2(CCN3C)CC1=O (stereo not given in full)	> 50	> 50	> 50	> 50	> 50	> 50	19.5	
COC1=CC2[C@@H]3Cc4c(Br)cc(OC)c(OCCCOC(=O)CCCCC(CCSCc5ccccc5)SCc5ccccc5)c4[C@]2(CCN3C)CC1=O (stereo not given in full)	> 50	> 50	> 50	> 50	> 50	> 50	24.3	
O=C(O)CCCCC(CCSCc1ccccc1)SCc1ccccc1 (stereo not given) [CPI 613]		> 50	> 50	> 50	> 50	> 50	> 50	
COC1=CC2[C@@H]3Cc4c(Cl)cc(OC)c(OCCCOC(=O)CCCCC(CCSCc5ccccc5)SCc5ccccc5)c4[C@]2(CCN3C)CC1=O (stereo not given in full)	> 50	> 50	> 50	> 50	> 50	> 50	27.4	
COC1=CC2[C@@H]3Cc4c(Br)cc(OC)c(O)c4[C@]2(CCN3C)CC1=O (stereo not given in full)		> 50	> 50	> 50	> 50	> 50	33	
COC1=CC2[C@@H]3Cc4ccc(OC)c(OCCOC(=O)CCCCC(CCSCc5ccccc5)SCc5ccccc5)c4[C@]2(CCN3C)CC1=O (stereo not given in full)	> 50	47.5	11.6	> 50	> 50	> 50	158	
COC1=C[C@@H]2[C@@H]3Cc4ccc(OC)c(O)c4[C@]2(CCN3C)CC1=O [SINOMENINE]		> 50	> 50	> 50	> 50	> 50	37.2	
COC1=CC2[C@@H]3Cc4c(Cl)cc(OC)c(OCCCCOC(=O)CCCCC(CCSCc5ccccc5)SCc5ccccc5)c4[C@]2(CCN3C)CC1=O (stereo not given in full)	> 50	> 50	> 50	> 50	> 50	> 50	17.8	
COC1=CC2[C@@H]3Cc4c(Br)cc(OC)c(OCCCCCCOC(=O)CCCCC(CCSCc5ccccc5)SCc5ccccc5)c4[C@]2(CCN3C)CC1=O (stereo not given in full)	> 50	> 50	> 50	> 50	> 50	> 50	> 50	
COC1=CC2[C@@H]3Cc4ccc(OC)c(OCCCCCCOC(=O)CCCCC(CCSCc5ccccc5)SCc5ccccc5)c4[C@]2(CCN3C)CC1=O (stereo not given in full)	> 50	28.2	16.2	> 50	> 50	> 50	3.02	
COC1=CC2[C@@H]3Cc4c(Cl)cc(OC)c(OCCOC(=O)CCCCC(CCSCc5ccccc5)SCc5ccccc5)c4[C@]2(CCN3C)CC1=O (stereo not given in full)	> 50	> 50	> 50	> 50	> 50	> 50	16.8	
COC1=CC2[C@@H]3Cc4c(Cl)cc(OC)c(OC(=O)CCCCC(CCSCc5ccccc5)SCc5ccccc5)c4[C@]2(CCN3C)CC1=O (stereo not given in full)	> 50	> 50	> 50	> 50	> 50	> 50	26	
COC1=CC2[C@@H]3Cc4c(Br)cc(OC)c(OCCCCOC(=O)CCCCC(CCSCc5ccccc5)SCc5ccccc5)c4[C@]2(CCN3C)CC1=O (stereo not given in full)	> 50	> 50	> 50	> 50	> 50	> 50	25.1	
COC1=CC2[C@@H]3Cc4c(Br)cc(OC)c(OCCCCCOC(=O)CCCCC(CCSCc5ccccc5)SCc5ccccc5)c4[C@]2(CCN3C)CC1=O (stereo not given in full)	> 50	> 50	> 50	> 50	> 50	> 50	22.5	
COC1=CC2[C@@H]3Cc4ccc(OC)c(OC(=O)CCCCC(CCSCc5ccccc5)SCc5ccccc5)c4[C@]2(CCN3C)CC1=O (stereo not given in full)	> 50	> 50	> 50	> 50	> 50	> 50	23.4	
COC1=CC2[C@@H]3Cc4c(Br)cc(OC)c(OCCOC(=O)CCCCC(CCSCc5ccccc5)SCc5ccccc5)c4[C@]2(CCN3C)CC1=O (stereo not given in full)	> 50	> 50	> 50	> 50	> 50	> 50	18.9	
O=c1[nH]cc(F)c(=O)[nH]1 [FLUOROURACIL]			34.9	> 50	48.2	> 50	5.18	
COC1=CC2[C@@H]3Cc4ccc(OC)c(OCCCCCOC(=O)CCCCC(CCSCc5ccccc5)SCc5ccccc5)c4[C@]2(CCN3C)CC1=O (stereo not given in full)	> 50	15.6	23.9	> 50	> 50	45.4	2.45	Activity (K562 [3]): 41.92%; Activity (Cell membrane [4]): 41.1%; Activity (Cell membrane [5]): 59.1%; Activity (K562 [6]): 24.33%; Activity (K562 [7]): 60.57%; Activity (K562 [8]): 10.69%; Activity (K562 [9]): 25.04%; Activity (K562 [10]): 9.83%; Activity (K562 [11]): 47.39%; Activity (K562 [12]): Dose-Dependent Effect; Activity (K562 [13]): 38.69%; Activity (K562 [14]): 54.84%; Activity (K562 [15]): 6.48%; Activity (Cell membrane [16]): 26.4%; Activity (K562 [17]): 13.66%; Activity (K562 [18]): Dose-Dependent Effect; Activity (K562 [19]): 32.95%; Activity (K562 [20]): 39.9%; Activity (K562 [21]): 3.47%; Activity (K562 [22]): 3.53%
COC1=CC2[C@@H]3Cc4ccc(OC)c(OCCCCOC(=O)CCCCC(CCSCc5ccccc5)SCc5ccccc5)c4[C@]2(CCN3C)CC1=O (stereo not given in full)	> 50	36.6	28.6	> 50	> 50	46.9	5.32	
COC1=CC2[C@@H]3Cc4ccc(OC)c(OCCCOC(=O)CCCCC(CCSCc5ccccc5)SCc5ccccc5)c4[C@]2(CCN3C)CC1=O (stereo not given in full)	> 50	37	17.7	> 50	> 50	48.4	4.16	
COC1=CC2[C@@H]3Cc4c(Cl)cc(OC)c(O)c4[C@]2(CCN3C)CC1=O (stereo not given in full)		> 50	> 50	> 50	> 50	> 50	39.3	
COC1=CC2[C@@H]3Cc4c(Cl)cc(OC)c(OCCCCCCOC(=O)CCCCC(CCSCc5ccccc5)SCc5ccccc5)c4[C@]2(CCN3C)CC1=O (stereo not given in full)	> 50	> 50	> 50	> 50	> 50	> 50	21.5	
COC1=CC2[C@@H]3Cc4c(Br)cc(OC)c(OC(=O)CCCCC(CCSCc5ccccc5)SCc5ccccc5)c4[C@]2(CCN3C)CC1=O (stereo not given in full)	> 50	> 50	> 50	> 50	> 50	> 50	17.4	
